Patent US20260226034A1 (The Rockefeller University, priority 2023, published 2026)

target: NSP14 (Severe acute respiratory syndrome coronavirus 2, UniProt P0DTD1); assay: NSP14 MTase inhibition assay at 37° C. (MTase-Glo SAH detection); format: biochemical, SARS-CoV-2; details: 0.3 nM NSP14, 2.5 μM SAM, 2.5 μM GpppA RNA, 45 min at 37° C.; read-out: Nsp14 Mtase Inh. IC50
Procedure: NSP14 MTase assay at 37° C. (0.3 nM NSP14 as final enzyme concentration)
The NSP14 MTase assay at 37° C. is carried out in 384-well flat bottom polystyrene microplates (Greiner, 781075). Per well, 10 μl of 1×NSP14 reaction buffer (50 mM Tris-HCl, pH 7.5, 6 mM KCl, 1.25 mM MgCl2, 1 mM DTT, and 0.01% Tween-20) are dispensed in columns 1-23 using a Thermo Multidrop Combi dispenser (Thermo Scientific). 0.1 μl of serially diluted compounds in DMSO are dispensed into columns 1-22 of the assay microplates with a Janus 384 MDT NanoHead (PerkinElmer). In wells of column 23, which serve as negative controls, no compounds are added.
The NSP14 reaction is started by adding 4 μl of a 4× substrate solution containing S-adenosyl methionine (SAM, 10 μM) and GpppA RNA (10 μM) prepared in 1×NSP14 reaction buffer. Any addition of reagents is followed by a 30 second centrifugation at 500×g to ensure that all liquid was collected at the bottom of the well. The final concentrations of NSP14, SAM, and GpppA RNA are 0.3 nM, 2.5 μM, and 2.5 μM, respectively. The final reaction volume is 16 μl. Plates are sealed and incubated for 45 min at 37° C.
For SAH detection, 1 μl 5× MTase-Glo™ Reagent (Promega) is added to each well, plates are mixed for 1-2 minutes and incubated at room temperature for 30 minutes. 5 μl of room-temperature MTase-Glo™ Detection Solution (Promega) is added to each well, plates are mixed for 1-2 minutes and incubated at room temperature for 30 minutes. Luminescence signals of each well are recorded in relative light units (RLUs) using a Biotek Synergy Neo plate reader (BioTek, Winooski, VT). The SAH production is normalized against the positive control (PK, column 24) and negative control (NK, column 23) as follows: normalized % inhibition=100×(RLUsample-RLUaverageNK)/(RLUaveragePK-RLUaverageNK).

Row | Compound | IC50 [nM]
1 | Cc1c(S(=O)(=O)c2ccc3[nH]ncc3c2)cc(C(=O)N[C@@H]2CCN(c3ccc(Cl)cn3)C2)n1C [A.44] | < 0.15
2 | Cc1c(S(=O)(=O)c2ccc3[nH]ncc3c2)cc(C(=O)NCc2cccc3cnn(C4CC4)c23)n1C [A.5] | 1.5
3 | Cc1c(S(=O)(=O)c2ccc3[nH]ncc3c2)cc(C(=O)NC2(CO)CCN(c3ncc(F)cn3)C2)n1C (single isomer, unassigned) [A.116, 4-((1H-indazol-5-yl)sulfonyl)-N-(1-(5-fluoropyrimidin-2-yl)-3-(hydroxymethyl)pyrrolidin-3-yl)-1,5-dimethyl-1H-pyrrole-2-carboxamide] | 44
4 | Cc1c(S(=O)(=O)c2ccc3[nH]ncc3c2)cc(C(=O)N[C@@H]2CCN(Cc3ccc(C#N)cc3)C2)n1C [A.101] | 26
5 | Cc1c(S(=O)(=O)c2ccccc2)cc(C(=O)NCc2c(F)ccc3occc23)n1C [A.20] | 22
6 | Cc1c(S(=O)(=O)c2ccc3[nH]ncc3c2)cc(C(=O)NC2CCCN(c3ncc(F)cn3)C2)n1C (stereo not shown) [A.77] | 7.9
7 | Cc1c(S(=O)(=O)c2ccc3[nH]ncc3c2)cc(C(=O)N[C@@H]2CCN(c3ccccc3OC(F)(F)F)C2)n1C [A.85] | 27
8 | Cc1c(S(=O)(=O)c2ccc3c(cnn3C)c2)cc(C(=O)NCc2cccc3cnn(C)c23)n1C [A.12] | 5.6
9 | Cc1c(S(=O)(=O)c2cnc3c(cnn3C)c2)cc(C(=O)NCc2cccc3cnn(C)c23)n1C [A.29] | 160
10 | Cc1c(S(=O)(=O)c2ccc3[nH]nc(F)c3c2)cc(C(=O)N[C@@H]2CCN(c3ncc(F)cn3)C2)n1C [A.39] | < 0.15
11 | Cc1c(S(=O)(=O)c2ccc3[nH]ncc3c2)cc(C(=O)N[C@@H]2CCN(c3ccccc3C#N)C2)n1C [A.83] | 0.84
12 | Cc1c(S(=O)(=O)c2ccc3[nH]ncc3c2)cc(C(=O)N[C@@H]2CCN(c3ccc(C#N)cc3)C2)n1C [A.57] | 0.57
13 | Cc1c(S(=O)(=O)c2ccc3[nH]ncc3c2)cc(C(=O)N[C@@H]2CCN(c3cnccn3)C2)n1C [A.71] | 0.55
14 | Cc1c(S(=O)(=O)c2ccc3[nH]ncc3c2)cc(C(=O)N[C@@H]2CCN(c3cc(C#N)ccn3)C2)n1C [A.79] | 0.6
15 | Cc1c(S(=O)(=O)c2ccncc2)cc(C(=O)NCc2cccc3cnn(C)c23)n1C [A.27] | 102
16 | Cc1c(S(=O)(=O)c2ccc3[nH]ncc3c2)cc(C(=O)N[C@@H]2CCN(c3cccc(C(F)(F)F)n3)C2)n1C [A.38] | 0.8
17 | Cc1c(S(=O)(=O)c2ccc3[nH]ncc3c2)cc(C(=O)N[C@@H]2CCN(c3ccnc(C(F)(F)F)n3)C2)n1C [A.92] | < 0.15
18 | Cc1c(S(=O)(=O)c2ccc3[nH]ncc3c2)cc(C(=O)N[C@@H]2CCN(c3cccc4c3cnn4C)C2)n1C [A.61] | 0.39
19 | Cc1c(S(=O)(=O)c2cc(Cl)c3[nH]ncc3c2)cc(C(=O)N[C@@H]2CCN(c3ccc(C#N)cn3)C2)n1C [A.106] | < 0.15
20 | Cc1c(S(=O)(=O)c2ccc(Cl)cc2)cc(C(=O)NCc2cccc3cnn(C)c23)n1C [A.11] | 5.3
21 | Cc1c(S(=O)(=O)c2ccc3[nH]ncc3c2)cc(C(=O)N[C@@H]2CCN(c3ncccc3C#N)C2)n1C [A.37] | < 0.15
22 | Cc1c(S(=O)(=O)c2ccc3[nH]ncc3c2)cc(C(=O)N[C@@H]2CCN(c3ncc(C(F)(F)F)cn3)C2)n1C [A.52] | 0.3
23 | Cc1c(S(=O)(=O)c2ccc3[nH]ncc3c2)cc(C(=O)N[C@@H]2CCN(c3cc(C(F)(F)F)ccn3)C2)n1C [A.74] | 0.57
24 | COCC1(NC(=O)c2cc(S(=O)(=O)c3ccc4[nH]ncc4c3)c(C)n2C)CCN(c2ncc(F)cn2)C1 (single isomer, unassigned) [A.114, 4-((1H-indazol-5-yl)sulfonyl)-N-(1-(5-fluoropyrimidin-2-yl)-3-(methoxymethyl)pyrrolidin-3-yl)-1,5-dimethyl-1H-pyrrole-2-carboxamide] | 0.87

same assay, conditions: 37° C., 0.3 nM NSP14, 2.5 μM SAM, 2.5 μM GpppA RNA; read-out: Nsp14 Mtase Inh. IC50

Row | Compound | IC50 [nM]
25 | Cc1c(S(=O)(=O)c2ccc3[nH]ncc3c2)cc(C(=O)NCc2c(F)cccc2Cl)n1C [B.85] | 0.2
26 | Cc1c(S(=O)(=O)c2cc(F)c3[nH]ncc3c2)cc(C(=O)NCc2c(F)ccc3nnn(C4CC4)c23)n1C [B.94] | < 0.15
27 | Cc1c(S(=O)(=O)c2ccc3[nH]ncc3c2)cc(C(=O)NCc2c(Cl)cnn2C)n1C [B.142] | 1.4
28 | Cc1c(S(=O)(=O)c2ccc3[nH]nc(F)c3c2)cc(C(=O)NCc2c(F)ccc3c2N(C)C(=O)C3(F)F)n1C [B.105] | 0.15
29 | Cc1nn(C)cc1CNC(=O)c1cc(S(=O)(=O)c2ccc3[nH]ncc3c2)c(C)n1C [B.152] | 20
30 | Cc1c(S(=O)(=O)c2ccc3[nH]ncc3c2)cc(C(=O)NCc2c(F)ccc(OCCCCC(=O)O)c2F)n1C [B.125] | < 0.15
31 | O=C(NCc1c(F)ccc2ncn(C3CC3)c12)c1cc(S(=O)(=O)c2ccc3[nH]nc(F)c3c2)c2n1CCC2 [B.91] | 0.28
32 | Cc1c(S(=O)(=O)c2cc(F)c3[nH]ncc3c2)cc(C(=O)NCc2ccnn2C)n1C [B.137] | 10
33 | COc1nccc(F)c1CNC(=O)c1cc(S(=O)(=O)c2ccc3[nH]ncc3c2)c(C)n1C [B.112] | < 0.15
34 | Cc1c(S(=O)(=O)c2cc(F)c3[nH]nc(F)c3c2)cc(C(=O)NCc2c(F)ccc3cnn(C4CC4)c23)n1C [B.99] | 0.15
35 | Cc1c(S(=O)(=O)c2cc(Cl)c3[nH]ncc3c2)cc(C(=O)NCc2c(Cl)cnn2C)n1C [B.184] | < 0.15
36 | Cc1c(S(=O)(=O)c2ccc3[nH]ncc3c2)cc(C(=O)NCc2ccn3nccc3c2)n1C [B.141] | 16
37 | Cc1c(S(=O)(=O)c2ccc3[nH]ncc3c2)cc(C(=O)NCc2ccccc2F)n1C [B.76] | 1.6
38 | Cc1c(S(=O)(=O)c2ccc3[nH]ncc3c2)cc(C(=O)NCc2[nH]c(=O)ccc2Cl)n1C [B.190] | 3.3
39 | Cc1c(S(=O)(=O)c2ccc3[nH]ncc3c2)cc(C(=O)NCc2cccc3c(F)nn(C4CC4)c23)n1C [B.35] | 3.3
40 | Cc1c(S(=O)(=O)c2ccc3[nH]nc(F)c3c2)cc(C(=O)NC(c2ccccc2)C(F)(F)F)n1C (stereo not shown) [B.122] | 70
41 | Cc1c(S(=O)(=O)c2ccc3[nH]ncc3c2)cc(C(=O)NCc2ccnn2C(F)F)n1C [B.165] | 14
42 | Cc1c(S(=O)(=O)c2ccc3[nH]ncc3c2)cc(C(=O)NCc2cccnc2N2CCC(F)(F)C2)n1C [B.20] | 0.75
43 | Cc1c(S(=O)(=O)c2ccc3[nH]ncc3c2)cc(C(=O)NC(=O)c2ccccc2)n1C [B.169] | 3.2

Row | Compound | IC50 [nM]
44 | Cc1c(S(=O)(=O)c2ccc3[nH]ncc3c2)cc(C(=O)NC2CCc3ccc(C(F)(F)F)cc32)n1C (racemic) [B.72] | 33
45 | Cc1c(S(=O)(=O)c2ccc3[nH]nc(F)c3c2)cc(C(=O)NCc2cncnc2N2CCC(F)(F)C2)n1C [B.38] | 0.56
46 | Cc1c(S(=O)(=O)c2ccc3[nH]ncc3c2)cc(C(=O)NCc2ccnn2CC(F)F)n1C [B.162] | 2.2
47 | Cc1c(S(=O)(=O)c2ccc3[nH]ncc3c2)cc(C(=O)NCc2cccc3nnn(C4CC4)c23)n1C [B.66] | < 0.15
48 | Cc1c(S(=O)(=O)c2ccc3[nH]ncc3c2)cc(C(=O)NCc2c[nH]c(=O)c3ncccc23)n1C [B.155] | 0.3
49 | Cc1c(S(=O)(=O)c2cc(F)c3[nH]ncc3c2)cc(C(=O)NCc2ncccc2F)n1C [B.58] | 2.3
50 | Cc1c(S(=O)(=O)c2ccc3[nH]ncc3c2)cc(C(=O)NC2CCc3cc(F)c(F)cc32)n1C (racemic) [B.92] | 27
51 | Cc1c(S(=O)(=O)c2ccc3[nH]ncc3c2)cc(C(=O)NNc2c(F)cccc2F)n1C [B.75] | 9.6
52 | Cc1c(S(=O)(=O)c2ccc3[nH]ncc3c2)cc(C(=O)NCc2cccc3c2CCC(=O)N3C)n1C [B.25] | < 0.15
53 | Cc1c(S(=O)(=O)c2ccc3[nH]nc(F)c3c2)cc(C(=O)NC(c2ccccc2)c2ccccc2)n1C [B.126] | 108
54 | Cc1c(S(=O)(=O)c2ccc3[nH]ncc3c2)cc(C(=O)NCc2ccccc2C#N)n1C [B.101] | 192
55 | Cc1c(S(=O)(=O)c2ccc3[nH]ncc3c2)cc(C(=O)NCc2c(F)cc[nH]c2=O)n1C [B.113] | 0.34
56 | Cc1c(S(=O)(=O)c2ccc3[nH]ncc3c2)cc(C(=O)NCc2n[nH]c(=O)c3ccccc23)n1C [B.121] | < 0.15
57 | Cc1c(S(=O)(=O)c2ccc3[nH]ncc3c2)cc(C(=O)NCc2cncn2C)n1C [B.146] | 29
58 | Cc1c(S(=O)(=O)c2ccc3ccc(C#N)cc3c2)cc(C(=O)NCc2c(F)ccc3cnn(C)c23)n1C [B.128] | 0.93
59 | Cc1c(S(=O)(=O)c2ccc3[nH]ncc3c2)cc(C(=O)NCc2cccc3c2N(C)C(=O)C3(F)F)n1C [B.26] | 0.49
60 | Cc1c(S(=O)(=O)c2ccc3[nH]ncc3n2)cc(C(=O)NCc2cccc3cnn(C4CC4)c23)n1C [B.50] | 51
61 | Cc1c(S(=O)(=O)c2ccc3[nH]ncc3c2)cc(C(=O)NCCCOc2ncc(F)cn2)n1C [B.196] | 18
